Assay [1] deals with GDP-bound HRAS wild-type protein (Homo sapiens, UniProt P01112). Put plainly: Binding to HRAS by surface plasmon resonance (SPR), Single Cycle Kinetics. The settings on record: KD ratio, GDP-bound HRAS wild-type vs GDP-bound KRAS wild-type, SPR.
For assay [2], the target named is GDP-bound NRAS wild-type protein (Homo sapiens, UniProt P01111). In words: Binding to NRAS by surface plasmon resonance (SPR), Single Cycle Kinetics. The settings on record: KD ratio, GDP-bound NRAS wild-type vs GDP-bound KRAS wild-type, SPR. A general note: Surface plasmon resonance follows binding to a sensor surface in real time, without labels.

Structures are written as SMILES.

Sequence of GDP-bound HRAS wild-type protein (P01112 whole entry): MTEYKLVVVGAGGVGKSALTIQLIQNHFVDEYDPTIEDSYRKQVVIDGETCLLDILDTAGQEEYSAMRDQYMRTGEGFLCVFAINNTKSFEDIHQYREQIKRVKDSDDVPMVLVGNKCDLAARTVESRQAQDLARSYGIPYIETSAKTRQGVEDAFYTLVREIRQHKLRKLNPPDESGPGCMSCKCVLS
Sequence of GDP-bound NRAS wild-type protein (P01111 whole entry): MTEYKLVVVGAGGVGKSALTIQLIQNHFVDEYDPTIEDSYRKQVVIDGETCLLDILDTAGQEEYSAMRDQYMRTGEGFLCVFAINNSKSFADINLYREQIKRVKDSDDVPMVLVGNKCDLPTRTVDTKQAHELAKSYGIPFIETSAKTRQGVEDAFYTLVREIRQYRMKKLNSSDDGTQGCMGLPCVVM

Regarding `CCO[C@@H]1C[C@H]2C(=O)NC3(CC(C)(C)C3)C(=O)N(C)[C@@H](C3CCCC3)C(=O)N(CC)[C@H](C(=O)N(C)C)CC(=O)N(C)[C@@H](CC)C(=O)N[C@@H]([C@@H](C)CC)C(=O)N(C)CC(=O)N(C)[C@H]3C/C=C\CCN(C3=O)[C@@H](Cc3ccc(C(F)(F)F)cc3)C(=O)N(C)CC(=O)N[C@@H](CCc3cc(F)c(C(F)(F)F)c(F)c3)C(=O)N2C1` [PP1768], in assay [1], the “HRAS/KRAS (ratio of KD value for HRAS to KD value for KRAS)” value is “A (a compound having 10 or more and less than 20 is denoted as A)”. The “NRAS/KRAS (ratio of KD value for NRAS to KD value for KRAS)” value in assay [2] was “A (a compound having 10 or more and less than 20 is denoted as A)”.

As to `CCC[C@H]1C(=O)N[C@@H]([C@@H](C)CC)C(=O)N(C)CC(=O)N(C)[C@H]2C/C=C\CCN(C2=O)[C@@H](Cc2ccc(C(F)(F)F)cc2)C(=O)N(C)CC(=O)N[C@@H](CCc2cc(F)c(C(F)(F)F)c(F)c2)C(=O)N2C[C@H](OCC)C[C@H]2C(=O)NC2(CCC2)C(=O)N(C)[C@@H](C2CCCC2)C(=O)N(CCC)[C@H](C(=O)N(C)C)CC(=O)N1C` [PP1769], the “HRAS/KRAS (ratio of KD value for HRAS to KD value for KRAS)” value in assay [1] was “A (a compound having 10 or more and less than 20 is denoted as A)”. In addition, in assay [2], the “NRAS/KRAS (ratio of KD value for NRAS to KD value for KRAS)” value was “A (a compound having 10 or more and less than 20 is denoted as A)”.

Turning to `CCO[C@@H]1C[C@H]2C(=O)NC3(CC(C)(C)C3)C(=O)N(C)[C@@H](C3CCCC3)C(=O)N(C)[C@H](C(=O)N(C)CC)CC(=O)N(C)[C@@H](CC(C)C)C(=O)N[C@@H]([C@@H](C)CC)C(=O)NCC(=O)N(C)[C@H]3C/C=C\CCN(C3=O)[C@@H](Cc3ccc(C(F)(F)F)cc3)C(=O)N(C)CC(=O)N[C@@H](CCc3cc(F)c(C(F)(F)F)c(F)c3)C(=O)N2C1` [PP1771], the “HRAS/KRAS (ratio of KD value for HRAS to KD value for KRAS)” value in assay [1] is “A (a compound having 10 or more and less than 20 is denoted as A)”. Besides, the “NRAS/KRAS (ratio of KD value for NRAS to KD value for KRAS)” value in assay [2] is “A (a compound having 10 or more and less than 20 is denoted as A)”.

In the case of `CCO[C@@H]1C[C@H]2C(=O)NC3(CC(C)(C)C3)C(=O)N(C)[C@@H](C3CCCC3)C(=O)N(C)[C@H](C(=O)N(C)C)CC(=O)N(CC)[C@@H](CC(C)C)C(=O)N[C@@H]([C@@H](C)CC)C(=O)NCC(=O)N(C)[C@H]3C/C=C\CCN(C3=O)[C@@H](Cc3ccc(C(F)(F)F)cc3)C(=O)N(C)CC(=O)N[C@@H](CCc3cc(F)c(C(F)(F)F)c(F)c3)C(=O)N2C1` [PP1772], in assay [1], the “HRAS/KRAS (ratio of KD value for HRAS to KD value for KRAS)” value is “B (a compound having 3 or more and less than 10 is denoted as B)”. Besides, the “NRAS/KRAS (ratio of KD value for NRAS to KD value for KRAS)” value in assay [2] is “B (a compound having 3 or more and less than 10 is denoted as B)”.

For `CCO[C@@H]1C[C@H]2C(=O)NC3(CC(C)(C)C3)C(=O)N(C)[C@@H](C3CCCC3)C(=O)N(CC)[C@H](C(=O)N(C)C)CC(=O)N(C)[C@@H](CC(C)C)C(=O)N[C@@H]([C@@H](C)CC)C(=O)NCC(=O)N(C)[C@H]3C/C=C\CCN(C3=O)[C@@H](Cc3ccc(C(F)(F)F)cc3)C(=O)N(C)CC(=O)N[C@@H](CCc3cc(F)c(C(F)(F)F)c(F)c3)C(=O)N2C1` [PP1773], the “HRAS/KRAS (ratio of KD value for HRAS to KD value for KRAS)” value in assay [1] was “A (a compound having 10 or more and less than 20 is denoted as A)”. Moreover, in assay [2], the “NRAS/KRAS (ratio of KD value for NRAS to KD value for KRAS)” value was “A (a compound having 10 or more and less than 20 is denoted as A)”.

Consider `CC[C@H](C)[C@@H]1NC(=O)[C@H](CC(C)C)N(C)C(=O)C[C@@H](C(=O)N(C)C)N(C)C(=O)[C@H](C2CCCC2)N(C)C(=O)C2(CC(C)(C)C2)NC(=O)CN(C)C(=O)[C@H](CCc2cc(F)c(C(F)(F)F)c(F)c2)NC(=O)CN(C)C(=O)[C@H](Cc2ccc(C(F)(F)F)cc2)N2CC/C=C\C[C@@H](C2=O)N(C)C(=O)CN(C)C1=O` [PP1776], for which the “HRAS/KRAS (ratio of KD value for HRAS to KD value for KRAS)” value in assay [1] was “A (a compound having 10 or more and less than 20 is denoted as A)”. The “NRAS/KRAS (ratio of KD value for NRAS to KD value for KRAS)” value in assay [2] is “A (a compound having 10 or more and less than 20 is denoted as A)”.

For `CCC[C@H]1C(=O)N[C@@H]([C@@H](C)CC)C(=O)N(C)CC(=O)N(C)[C@H]2C/C=C\CCN(C2=O)[C@@H](Cc2ccc(C(F)(F)F)cc2)C(=O)N(C)CC(=O)N[C@@H](CCc2cc(F)c(C(F)(F)F)c(F)c2)C(=O)N(CC)CC(=O)NC2(CC(C)(C)C2)C(=O)N(C)[C@@H](C2CCCC2)C(=O)N(C)[C@H](C(=O)N(C)C)CC(=O)N1C` [PP1777], the “HRAS/KRAS (ratio of KD value for HRAS to KD value for KRAS)” value in assay [1] is “B (a compound having 3 or more and less than 10 is denoted as B)”. Moreover, the “NRAS/KRAS (ratio of KD value for NRAS to KD value for KRAS)” value in assay [2] was “A (a compound having 10 or more and less than 20 is denoted as A)”.

Turning to `CCO[C@@H]1C[C@H]2C(=O)N(C)C3(CCC3)C(=O)N(C)[C@@H](C3CCCC3)C(=O)N(C)[C@H](C(=O)N(C)C)CC(=O)N(C)[C@@H](CC)C(=O)N[C@@H]([C@@H](C)CC)C(=O)N(C)CC(=O)N(C)[C@H]3C/C=C\CCN(C3=O)[C@@H](Cc3ccc(C(F)(F)F)cc3)C(=O)N(C)CC(=O)N[C@@H](CCc3cc(F)c(C(F)(F)F)c(F)c3)C(=O)N2C1` [PP1779], the “HRAS/KRAS (ratio of KD value for HRAS to KD value for KRAS)” value in assay [1] is “B (a compound having 3 or more and less than 10 is denoted as B)”. Besides, the “NRAS/KRAS (ratio of KD value for NRAS to KD value for KRAS)” value in assay [2] was “A (a compound having 10 or more and less than 20 is denoted as A)”.

Regarding `CC[C@H](C)[C@@H]1NC(=O)[C@H](CC)N(C)C(=O)C[C@@H](C(=O)N(C)C)N(C)C(=O)[C@H](C2CCCC2)N(C)C(=O)C2(CCC2)N(C)C(=O)[C@@H]2CCCN2C(=O)[C@H](CCc2cc(F)c(C(F)(F)F)c(F)c2)NC(=O)CN(C)C(=O)[C@H](Cc2ccc(C(F)(F)F)cc2)N2CC/C=C\C[C@@H](C2=O)N(C)C(=O)CN(C)C1=O` [PP1780], the “HRAS/KRAS (ratio of KD value for HRAS to KD value for KRAS)” value in assay [1] was “A (a compound having 10 or more and less than 20 is denoted as A)”. Besides, the “NRAS/KRAS (ratio of KD value for NRAS to KD value for KRAS)” value in assay [2] was “A (a compound having 10 or more and less than 20 is denoted as A)”.

For `CCO[C@@H]1C[C@H]2C(=O)N(C)C3(CCC3)C(=O)N(C)[C@@H](C3CCCC3)C(=O)N(C)[C@H](C(=O)N(C)C)CC(=O)N(C)[C@@H](CC)C(=O)N[C@@H]([C@@H](C)CC)C(=O)N(C)CC(=O)N(C)[C@H]3C/C=C\CCN(C3=O)[C@@H](Cc3ccc(C)cc3)C(=O)N(C)CC(=O)N[C@@H](CCc3cc(F)c(C(F)(F)F)c(F)c3)C(=O)N2C1` [PP1781], the “HRAS/KRAS (ratio of KD value for HRAS to KD value for KRAS)” value in assay [1] is “B (a compound having 3 or more and less than 10 is denoted as B)”. Moreover, the “NRAS/KRAS (ratio of KD value for NRAS to KD value for KRAS)” value in assay [2] is “A (a compound having 10 or more and less than 20 is denoted as A)”.

For the molecule `CC[C@H](C)[C@@H]1NC(=O)[C@H](CC)N(C)C(=O)C[C@@H](C(=O)N(C)C)N(C)C(=O)[C@H](C2CCCC2)N(C)C(=O)C2(CCC2)N(C)C(=O)[C@@H]2CCCN2C(=O)[C@H](CCc2cc(F)c(C(F)(F)F)c(F)c2)NC(=O)CN(C)C(=O)[C@H](Cc2ccc(C)cc2)N2CC/C=C\C[C@@H](C2=O)N(C)C(=O)CN(C)C1=O` [PP1782], the “HRAS/KRAS (ratio of KD value for HRAS to KD value for KRAS)” value in assay [1] was “B (a compound having 3 or more and less than 10 is denoted as B)”. Besides, the “NRAS/KRAS (ratio of KD value for NRAS to KD value for KRAS)” value in assay [2] was “A (a compound having 10 or more and less than 20 is denoted as A)”.

For the molecule `CCO[C@@H]1C[C@H]2C(=O)N(C)C3(CCC3)C(=O)N(C)[C@@H](C3CCCC3)C(=O)N(C)[C@H](C(=O)N(C)C)CC(=O)N(C)[C@@H](C3CC3)C(=O)N[C@@H]([C@@H](C)CC)C(=O)N(C)CC(=O)N(C)[C@H]3C/C=C\CCN(C3=O)[C@@H](Cc3ccc(C)cc3)C(=O)N(C)CC(=O)N[C@@H](CCc3cc(F)c(C(F)(F)F)c(F)c3)C(=O)N2C1` [PP1783], the “HRAS/KRAS (ratio of KD value for HRAS to KD value for KRAS)” value in assay [1] was “B (a compound having 3 or more and less than 10 is denoted as B)”. In assay [2], the “NRAS/KRAS (ratio of KD value for NRAS to KD value for KRAS)” value was “A (a compound having 10 or more and less than 20 is denoted as A)”.

For the origin of these results see US20250230193A1, “CYCLIC COMPOUND HAVING SELECTIVE KRAS INHIBITORY EFFECT ON HRAS AND NRAS” (CHUGAI SEIYAKU KABUSHIKI KAISHA, priority 2022, published 2025).
